The test system of experiment [1] is CL 6188 (Acinetobacter baumanii; Oxa40). Put plainly: microbe, parasite or virus in culture. As to conditions: Acinetobacter baumannii, read-out: Imipenem MIC.
From the text: (§1) The assay determines the concentration of a β-lactamase inhibitor required to reduce the MIC of a β-lactam antibiotic by one-half, one-quarter, one-eighth, one-sixteenth and one-thirty-second against strains of bacteria normally resistant to the antibiotic in question. This is accomplished by titrating the inhibitor (BLI=beta-lactamase inhibitor) in a serial dilution across a microtiter plate while at the same time titrating the antibiotic (AB) in a serial dilution down the microtiter plate and then inoculating the plate with the bacterial strain in question and allowing the bacteria to grow up overnight. Each well in this microplate checkerboard contains a different combination of concentrations of the inhibitor and the antibiotic allowing a full determination of any synergy between the two.
(§2) 100 μL is serially diluted from row A to row G of each MIC 2000 plate. […] 100 μL is removed from each well in row G of each MIC 2000 plate. […] 100 μL is serially diluted from column 1 to column 11 of each MIC 2000 plate. […] Plates are left at 37° C. for about 20 hours and scored for growth by eye. […]
(§3) Plates are scored for growth in each well. End points (MICs) where there is no growth in each row are determined and the concentrations of AB and the test BLI at each of these growth negative wells are then used to determine levels of synergy.
Experiment [2] deals with CL 5701 (Pseudomonas aeruginosa; Pa AmpC). Put plainly: microbe, parasite or virus in culture. To be noted: read-out: Imipenem MIC.
From the text: as §1, §2, §3

Values after ≈ are worked out from the molar mass of the structure shown.

For the compound `C[C@@H](O)[C@H]1C(=O)N2C(C(=O)O)=C(SCCN=CN)C[C@H]12` [Imipenem], the MIC came out at 128 µg/mL (≈ 428 µM) in experiment [1] and 20 µg/mL (≈ 66.8 µM) in experiment [2].

Values taken from patent US20100317625A1, “NOVEL SULFONAMIDOMETHYLP[…] BETA-LACTAMASE” (priority 2006, published 2010).
